# Key:
# [1] = Test of antimicrobial materials for deodorant activity; conditions: compared with currently available materials
# Excerpt: Cosmetic Chemists, 19, 611-626 (1968) and Cowen, "Relative Merits of `In Use` and Laboratory Methods for the Evaluation of Antimicrobial Products, "J. Soc. Cosmetic Chemists, 25, 307-323 (1974).
# β-lyase = assay: Sniff vial test: malodor formation from precursors by whole Staphylococcus haemolyticus cells (beta-lyase inhibition); assay type: cell-based; conditions: whole Staphylococcus haemolyticus cells, sniff vial assay
# Method: BCA was tested for its ability to prevent Staphylococcus haemolyticus from metabolizing sweat to form malodor. Log-phase cultures of Staphylococcus haemolyticus were incubated with various concentrations of BCA (31-0.625 mM) in phosphate buffer (pH 6.8) for 30 minutes at 35° C. The cell/BCA mixture was then added to a "sniff vial" containing malodor precursors and incubated at 35° C. for an additional 30 minutes. Malodor compounds were then extracted from the mixture with chloroform and malodor was judged by spotting 10 μl of chloroform extracts onto bibulous paper and smelling. […] In contrast, the β-lyase inhibitor aminooxyacetic acid (AOA) consistently prevents malodor in the above assay at concentrations of 5.0 mM.
# [2] = test system: Staphylococcus haemolyticus; assay: Minimum inhibitory concentration (MIC) in axillary bacteria, Staphylococcus strain; assay type: cell-based; conditions: overnight at 35° C., lowest concentration without turbidity, read-out: MIC
# Method: (§1) In vitro experiments were conducted in order to determine the ability of several bacterial cell wall synthesis inhibitors to inhibit the growth of axillary bacteria. The minimum inhibitory concentrations (MIC) of β-chloro-D-alanine (BCA), and D-cycloserine were determined in Staphylococcus (Staphylococcus haemolyticus) and Coryneform strains of axillary bacteria as follows: Frozen stock cultures were thawed out and 50 μl of Staphylococcus haemolyticus or 100 μl of Coryneform bacteria were inoculated into 5.0 ml of nutrient media. Bacteria were incubated at 35° C. overnight to produce cultures in log phase growth. A series of tubes was set up into which serial dilutions of BCA or triclosan in nutrient media were added in the range of 0.1 to 0.0001 wt/v % (where 1 g/100 ml=1 wt/v %). The tubes were inoculated with 50 μl of log phase Staphylococcus haemolyticus or Coryneform cultures and incubated at 35° C. overnight. […] The minimum bactericidal concentration (MBC) was determined by adding 50 μl from each clear solution of the MIC experiment into 5.0 ml of fresh nutrient media and incubating overnight at 37° C. […] The MIC of BCA was thus determined to be 0.1 wt/v % and 0.001 wt/v % in Staphylococcus haemolyticus and Coryneforms, respectively. The MIC of D-cycloserine was thus determined to be 0.01 wt/v % and 0.005 wt/v % in Staphylococcus haemolyticus and Coryneforms, respectively. By comparison, the MIC of the common antibacterial deodorant compound triclosan is 0.01 wt/v % and 0.1 wt/v % in Staphylococcus haemolyticus and Coryneforms, respectively.
# Coryneform bacteria = assay: Minimum inhibitory concentration (MIC) in axillary bacteria, Coryneform strain; assay type: cell-based, Coryneform strains of axillary bacteria; conditions: Coryneforms; overnight at 35° C.; lowest concentration without turbidity; read-out: MIC
# Method: as §1
# axillary malodor [3] = assay: Example 5: axillary malodor evaluation by odor judges, 1.0% D-cycloserine vs 0.3% triclosan; assay type: in vivo, human; parameters: key to Post-Application 24 Hour Drop from Control: drop in odor score vs control; scale 0 (no odor) to 10 (very intense); conditions: for Post-Application 24 Hour Drop from Control / Judges' Malodor Evaluation (score): 1.0% D-cycloserine, 0.3% triclosan; for Judges' Malodor Evaluation (score): scale 0 to 10
# Method: (§2) BCA was dissolved in a mixture of 60% propylene glycol and 40% water at a final concentration of 1.0%. The pH of the solution was adjusted to about 6.25 with 10 N NaOH. Thirty-nine female panelists applied 0.5 ml of this test solution to either the right or left axilla and 0.5 ml of a comparative solution of 60% propylene glycol and 40% water to the other. The side of application of the test or comparative solutions was assigned in a random fashion. Twenty-four hours after application, each side of the panelists' axilla was judged for odor by a panel of trained odor judges on a scale of 0 (no odor) to 10 (very intense, disagreeable odor). This procedure was performed on four consecutive days. […] Analysis of the clinical results is summarized below:
# A test product containing 1.0% D-cycloserine in 60% propylene glycol/40% water was compared to a product containing 0.3% triclosan in 60% propylene glycol/40% water by application to 60 test subjects according to the procedure of Example 4. […] All differences were highly significant.
# Staphylococcus cells = conditions: as disclosed in U.S. Pat. No. 5,487,886; cited from earlier work
# axillary malodor [4] = assay: Example 6: axillary malodor evaluation by odor judges, 1.0% β-chloro-D-alanine vs 1.0% β-chloro-L-alanine; assay type: in vivo, human; parameters: key to 24 Hour Drop from Control / A-B (drop), D-BCA minus L-BCA: drop in odor score on 0 (no odor) to 10 (very intense) scale; conditions: 1.0% in 60% propylene glycol/40% water
# Method: as §2
# A test product containing 1.0% β-chloro-D-alanine (BCA)[…] in 60% propylene glycol/40% water was compared to a comparative product containing 1.0% β-chloro-L-alanine in 60% propylene glycol/40% water by application to 50 female test subjects according to the procedure of Example 4.
# [5] = target: T1, serine-palmitoyl transferase (Mus musculus, UniProt P97363); conditions: topical application; Holleran et al. 1991; cited from earlier work
# T1 construct: host or cells: skin, in vivo after topical application
# T1 sequence (P97363 1-560): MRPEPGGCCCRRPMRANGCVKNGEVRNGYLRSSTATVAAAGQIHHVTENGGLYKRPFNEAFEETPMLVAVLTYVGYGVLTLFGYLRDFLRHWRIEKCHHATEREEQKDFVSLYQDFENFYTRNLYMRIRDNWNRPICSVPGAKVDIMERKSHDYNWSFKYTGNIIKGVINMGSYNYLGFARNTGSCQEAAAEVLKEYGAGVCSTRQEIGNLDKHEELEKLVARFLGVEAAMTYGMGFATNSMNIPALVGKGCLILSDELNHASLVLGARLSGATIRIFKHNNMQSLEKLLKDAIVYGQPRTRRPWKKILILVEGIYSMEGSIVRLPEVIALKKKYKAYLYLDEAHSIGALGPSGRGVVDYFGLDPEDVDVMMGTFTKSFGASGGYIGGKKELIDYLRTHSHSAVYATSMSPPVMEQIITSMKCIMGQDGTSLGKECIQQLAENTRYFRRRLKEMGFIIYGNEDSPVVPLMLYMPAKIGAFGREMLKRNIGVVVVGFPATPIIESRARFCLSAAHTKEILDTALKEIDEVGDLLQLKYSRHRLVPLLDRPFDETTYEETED
# T1 sequence (O35704 1-473 partner): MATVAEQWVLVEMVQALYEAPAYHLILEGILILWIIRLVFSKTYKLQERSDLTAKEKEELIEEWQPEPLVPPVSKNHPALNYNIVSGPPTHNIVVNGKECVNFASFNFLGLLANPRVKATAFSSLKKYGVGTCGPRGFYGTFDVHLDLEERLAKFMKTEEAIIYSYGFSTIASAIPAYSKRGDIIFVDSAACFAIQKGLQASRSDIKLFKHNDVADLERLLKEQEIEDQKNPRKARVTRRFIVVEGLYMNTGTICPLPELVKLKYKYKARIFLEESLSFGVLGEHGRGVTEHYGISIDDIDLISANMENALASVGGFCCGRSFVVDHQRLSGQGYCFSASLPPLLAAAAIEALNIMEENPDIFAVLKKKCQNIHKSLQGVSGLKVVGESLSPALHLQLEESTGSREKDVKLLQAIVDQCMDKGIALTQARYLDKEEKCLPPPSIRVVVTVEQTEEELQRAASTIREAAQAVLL
# [6] = topical application; Holleran et al. 1991; cited from earlier work
compound,measurement,setting,value
CCCCCCCCCCCCCCCCCC[N+](C)(C)CCC[Si](OC)(OC)OC.[Cl-] [3-(trimethoxysilyl)propyloctadecyldimethyl ammonium chloride],Deodorant activity,[1],no improvement over currently available materials was observed
"NOCC(=O)O [AOA, aminooxyacetic acid, reference compound]",Concentration that consistently prevents malodor,β-lyase,5.0 mM
NC1CONC1=O [D-cycloserine],MIC,[2],100 µg/mL
same,MIC,Coryneform bacteria,50 µg/mL
same,"Inhibition of axillary malodor, 1.0% D-cycloserine product versus 0.3% triclosan","axillary malodor [3]; all measurements and the composite, odor judges",superior to 0.3% triclosan
same,Post-Application 24 Hour Drop from Control,axillary malodor [3]; composite,1.13
same,Judges' Malodor Evaluation (score),axillary malodor [3]; composite,3.61
same,Post-Application 24 Hour Drop from Control,axillary malodor [3]; measurement day 1,1.1
same,Judges' Malodor Evaluation (score),axillary malodor [3]; measurement day 1,3.64
same,Post-Application 24 Hour Drop from Control,axillary malodor [3]; measurement day 2,0.99
same,Judges' Malodor Evaluation (score),axillary malodor [3]; measurement day 2,3.75
same,Post-Application 24 Hour Drop from Control,axillary malodor [3]; measurement day 3,1.22
same,Judges' Malodor Evaluation (score),axillary malodor [3]; measurement day 3,3.53
same,Post-Application 24 Hour Drop from Control,axillary malodor [3]; measurement day 4,1.22
same,Judges' Malodor Evaluation (score),axillary malodor [3]; measurement day 4,3.52
NC1CONC1=O [L-cycloserine],Effect on the growth of Staphylococcus cells in culture,Staphylococcus cells,no inhibitory effect
[H]/N=C(\N/C(=N/[H])NCCCCCCNC(=N)NC(=N)Nc1ccc(Cl)cc1)Nc1ccc(Cl)cc1 [chlorhexidine],Deodorant activity,[1],no improvement over currently available materials was observed
OO [hydrogen peroxide],Deodorant activity,[1],no improvement over currently available materials was observed
CC(=O)OCC(COC(C)=O)OC(C)=O [triacetin],Deodorant activity,[1],no improvement over currently available materials was observed
"Oc1cc(Cl)ccc1Oc1ccc(Cl)cc1Cl [triclosan, reference compound]",MIC,[2],100 µg/mL
same,MIC,Coryneform bacteria,1000 µg/mL
same,Post-Application 24 Hour Drop from Control,axillary malodor [3]; composite,0.65
same,Judges' Malodor Evaluation (score),axillary malodor [3]; composite,4.07
same,Post-Application 24 Hour Drop from Control,axillary malodor [3]; measurement day 1,0.67
same,Judges' Malodor Evaluation (score),axillary malodor [3]; measurement day 1,4
same,Post-Application 24 Hour Drop from Control,axillary malodor [3]; measurement day 2,0.46
same,Judges' Malodor Evaluation (score),axillary malodor [3]; measurement day 2,4.26
same,Post-Application 24 Hour Drop from Control,axillary malodor [3]; measurement day 3,0.74
same,Judges' Malodor Evaluation (score),axillary malodor [3]; measurement day 3,3.97
same,Post-Application 24 Hour Drop from Control,axillary malodor [3]; measurement day 4,0.72
same,Judges' Malodor Evaluation (score),axillary malodor [3]; measurement day 4,4
"N[C@@H](CCl)C(=O)O [β-chloro-L-alanine, reference compound]",24 Hour Drop from Control,axillary malodor [4]; composite,1.083
same,24 Hour Drop from Control,axillary malodor [4]; post-application measurement 1,0.913
same,24 Hour Drop from Control,axillary malodor [4]; post-application measurement 2,1.040
same,24 Hour Drop from Control,axillary malodor [4]; post-application measurement 3,1.013
same,24 Hour Drop from Control,axillary malodor [4]; post-application measurement 4,1.333
same,Inhibition of serine-palmitoyl transferase in the skin,[5],irreversibly inhibits
same,Recovery of skin barrier function in vivo,[6],alters recovery of skin barrier function

# Source: patent publication US6060043A, “Deodorant composition containing D-amino acid” (The Gillette Company, priority 1998, dated 2000)
